Measured values reported in patent US5789431A, “Naphthoquinone antitumor compound and method” (The University of North Carolina at Chapel Hill, priority 1996, dated 1998).

What was measured:
[1] = test system: SNB-19; experiment: in vitro CNS cancer cell growth inhibition (NCI screen)
[2] = test system: DLD-1; experiment: in vitro colon cancer cell growth inhibition (NCI screen)
[3] = test system: TK-10; experiment: in vitro renal cancer cell growth inhibition (NCI screen)
[4] = test system: NCI-H522; experiment: in vitro non-small cell lung cancer cell growth inhibition (NCI screen)
[5] = test system: U 251; experiment: in vitro CNS cancer cell growth inhibition (NCI screen)
[6] = test system: NCI-H460; experiment: in vitro non-small cell lung cancer cell growth inhibition (NCI screen)
[7] = test system: COLO-205; experiment: in vitro colon cancer cell growth inhibition (NCI screen)
[8] = test system: OVCAR-3; experiment: in vitro ovarian cancer cell growth inhibition (NCI screen)
[9] = test system: KM 20L2; experiment: in vitro colon cancer cell growth inhibition (NCI screen)
[10] = test system: HT 29; experiment: as above
[11] = test system: NCI-H23; experiment: in vitro non-small cell lung cancer cell growth inhibition (NCI screen)
[12] = test system: RXF-393; experiment: in vitro renal cancer cell growth inhibition (NCI screen)
[13] = test system: LXFL 529; experiment: in vitro non-small cell lung cancer cell growth inhibition (NCI screen)
[14] = test system: HL-60(TB); experiment: in vitro leukemia cell growth inhibition (NCI screen)
[15] = test system: SW 620; experiment: in vitro colon cancer cell growth inhibition (NCI screen)
[16] = test system: SF-539; experiment: in vitro CNS cancer cell growth inhibition (NCI screen)
[17] = test system: OVCAR-4; experiment: in vitro ovarian cancer cell growth inhibition (NCI screen); settings: OVACR-4
[18] = test system: K-562; experiment: in vitro leukemia cell growth inhibition (NCI screen)
[19] = test system: IGROV1; experiment: in vitro ovarian cancer cell growth inhibition (NCI screen)
[20] = test system: UACC-62; experiment: in vitro melanoma cell growth inhibition (NCI screen)
[21] = test system: UACC-257; experiment: as above
[22] = test system: human tumor cell lines; assay type: cell-based; settings: for GI50: Homo sapiens, cancer cell panel, general / most cell lines, read-out: logGI50 values in the cancer cell line panel (converted)
[23] = test system: MCF7/ADR-RES; experiment: in vitro breast cancer cell growth inhibition (NCI screen)
[24] = test system: SK-OV-3; experiment: in vitro ovarian cancer cell growth inhibition (NCI screen)
[25] = test system: MALME-3M; experiment: in vitro melanoma cell growth inhibition (NCI screen)
[26] = test system: ACHN; experiment: in vitro renal cancer cell growth inhibition (NCI screen)
[27] = test system: PC-3; experiment: in vitro prostate cancer cell growth inhibition (NCI screen)
[28] = test system: MDA-MB-231/ATCC; experiment: in vitro breast cancer cell growth inhibition (NCI screen)
[29] = test system: MOLT-4; experiment: in vitro leukemia cell growth inhibition (NCI screen)
[30] = test system: UO-31; experiment: in vitro renal cancer cell growth inhibition (NCI screen)
[31] = test system: M14; experiment: in vitro melanoma cell growth inhibition (NCI screen)
[32] = test system: MDA-MB-435; experiment: in vitro breast cancer cell growth inhibition (NCI screen)
[33] = test system: SNB-75; experiment: in vitro CNS cancer cell growth inhibition (NCI screen)
[34] = test system: HCT-15; experiment: in vitro colon cancer cell growth inhibition (NCI screen)
[35] = test system: SN12C; experiment: in vitro renal cancer cell growth inhibition (NCI screen)
[36] = test system: T-47D; experiment: in vitro breast cancer cell growth inhibition (NCI screen)
[37] = test system: NCI-H266; experiment: in vitro non-small cell lung cancer cell growth inhibition (NCI screen)
[38] = test system: BT-549; experiment: in vitro breast cancer cell growth inhibition (NCI screen)
[39] = test system: HOP-62; experiment: in vitro non-small cell lung cancer cell growth inhibition (NCI screen)
[40] = test system: HCT-116; experiment: in vitro colon cancer cell growth inhibition (NCI screen)
[41] = test system: MDA-N; experiment: in vitro breast cancer cell growth inhibition (NCI screen)
[42] = test system: SK-MEL-5; experiment: in vitro melanoma cell growth inhibition (NCI screen)
[43] = test system: LOX1MVI; experiment: as above
[44] = test system: HOP-92; experiment: in vitro non-small cell lung cancer cell growth inhibition (NCI screen)
[45] = test system: MCF-7; experiment: in vitro breast cancer cell growth inhibition (NCI screen)
[46] = test system: SK-MEL-2; experiment: in vitro melanoma cell growth inhibition (NCI screen)

Structure (SMILES)	cytotoxicity log GI50 [1] [M]	cytotoxicity log GI50 [4] [M]	cytotoxicity log GI50 [6] [M]	cytotoxicity log GI50 [7] [M]	cytotoxicity log GI50 [8] [M]	cytotoxicity log GI50 [10] [M]	cytotoxicity log GI50 [11] [M]	cytotoxicity log GI50 [12] [M]	cytotoxicity log GI50 [14] [M]	cytotoxicity log GI50 [15] [M]	cytotoxicity log GI50 [17] [M]	cytotoxicity log GI50 [19] [M]	cytotoxicity log GI50 [20] [M]	cytotoxicity log GI50 [21] [M]	cytotoxicity log GI50 [25] [M]	cytotoxicity log GI50 [27] [M]	cytotoxicity log GI50 [28] [M]	cytotoxicity log GI50 [31] [M]	cytotoxicity log GI50 [32] [M]	cytotoxicity log GI50 [34] [M]	further results
O=C1c2ccccc2C(=O)c2[nH]c(Cc3ccccc3F)nc21 [Compound 4b]	-4.42	-4.67	-4.47	-4.47	-4.84	-4.49	-4.56	-4.69	-4.45	-4.42	-4.55	–	–	–	–	–	–	–	–	–	cytotoxicity log GI50 [2]: -4.79 M; cytotoxicity log GI50 [3]: -4.53 M; cytotoxicity log GI50 [5]: -5.10 M; cytotoxicity log GI50 [9]: -4.47 M; cytotoxicity log GI50 [13]: -4.50 M; cytotoxicity log GI50 [16]: -4.51 M
Cc1nc2c(n1CCCl)C(=O)c1ccccc1C2=O [Compound 21, 1-(2'-Chloroethyl)-2-methylnaphth[2,3-d]imidazole-4,9-dione]	–	–	-4.83	-4.85	–	-4.80	–	-6.78	-4.79	–	-4.83	-4.94	-4.89	-4.85	-5.24	-5.07	-4.81	-5.33	-4.82	-5.10	cytotoxicity log GI50 [18]: -4.80 M; cytotoxicity log GI50 [5]: -4.90 M; cytotoxicity against tumor cells (in words) ([22]; cancer cell line panel): comparable to those of compounds 6-14; cytotoxicity log GI50 [23]: -4.79 M; cytotoxicity log GI50 [24]: -5.28 M; cytotoxicity log GI50 [26]: -6.32 M; cytotoxicity log GI50 [29]: -4.89 M; cytotoxicity log GI50 [30]: -6.22 M; cytotoxicity log GI50 [33]: -4.84 M
CCc1nc2c(n1CC)C(=O)c1ccccc1C2=O [Compound 23]	–	–	–	-4.77	-4.73	-4.60	–	-4.70	–	-4.57	–	-4.61	-4.54	-4.60	-4.81	-4.73	-4.77	-4.63	-4.74	–	cytotoxicity log GI50 [35]: -4.56 M; cytotoxicity log GI50 [3]: -4.66 M; cytotoxicity log GI50 [36]: -4.74 M; GI50 [22]: ~10 µM; cytotoxicity log GI50 [37]: -4.54 M; cytotoxicity log GI50 [33]: -4.68 M; cytotoxicity log GI50 [38]: -4.76 M
CCn1c(-c2ccc(OC)cc2)nc2c1C(=O)c1ccccc1C2=O [Compound 27]	–	–	–	–	–	–	-4.21	–	–	–	–	–	–	–	–	–	–	–	–	–	GI50 [22]: ~10 µM; cytotoxicity log GI50 [39]: -4.22 M
CCNC1=C(NC(=O)c2ccccc2)C(=O)c2ccccc2C1=O [Compound 47]	–	-4.95	–	-4.78	-4.47	–	–	-4.62	–	-4.63	–	–	-4.70	-4.63	-4.77	-4.74	-5.21	-4.58	-5.14	-4.73	cytotoxicity log GI50 [36]: -4.85 M; cytotoxicity log GI50 [23]: -4.78 M; cytotoxicity log GI50 [24]: -4.62 M; cytotoxicity log GI50 [40]: -4.59 M; cytotoxicity log GI50 [41]: -5.31 M
COC(=O)CCC(=O)NC1=C(NCc2ccccc2)C(=O)c2ccccc2C1=O [Compound 55]	-4.66	-4.72	-4.74	-4.69	-5.40	–	-4.67	–	-4.66	-4.70	-4.73	-4.75	-4.76	-4.78	–	–	–	-4.73	-4.72	-4.77	cytotoxicity log GI50 [42]: -4.92 M; cytotoxicity log GI50 [43]: -4.66 M; cytotoxicity log GI50 [44]: -4.80 M; cytotoxicity log GI50 [45]: -4.76 M; cytotoxicity log GI50 [41]: -4.79 M; cytotoxicity log GI50 [16]: -4.70 M; cytotoxicity log GI50 [46]: -4.73 M
